This experiment deals with human IDO1 (Homo sapiens, UniProt P14902). The experiment is described as follows: Assessment of human IDO-1 inhibitory activity in HEK cells (human IDO1/HEK293 cells, kynurenine read-out with Ehrlich reagent, absorbance 490 nm). The experiment is classed as cell-based. Further details: expressed in transfected cells. As to conditions: HEK Human IDO-1 cellular assay. A digest of the protocol: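 Kynurenine output from stably IDO1-transfected HEK293 cells (10,000/well, phenol red-free RPMI, 10% FBS) after 20 h compound exposure at 37 °C. The reaction was stopped with 0.2% TCA and heated 30 min at 50 °C, then the supernatant was mixed with Ehrlich reagent and read at 490 nm. IC50 was set against DMSO and a 500 nM reference standard as 0 and 100% inhibition.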

29 compounds from patent US9790169B2, “IDO inhibitors” (BRISTOL-MYERS SQUIBB COMPANY, priority 2015, dated 2017) can be followed below.

Molecules are shown by their SMILES.

Sequence of human IDO1 (P14902 whole entry): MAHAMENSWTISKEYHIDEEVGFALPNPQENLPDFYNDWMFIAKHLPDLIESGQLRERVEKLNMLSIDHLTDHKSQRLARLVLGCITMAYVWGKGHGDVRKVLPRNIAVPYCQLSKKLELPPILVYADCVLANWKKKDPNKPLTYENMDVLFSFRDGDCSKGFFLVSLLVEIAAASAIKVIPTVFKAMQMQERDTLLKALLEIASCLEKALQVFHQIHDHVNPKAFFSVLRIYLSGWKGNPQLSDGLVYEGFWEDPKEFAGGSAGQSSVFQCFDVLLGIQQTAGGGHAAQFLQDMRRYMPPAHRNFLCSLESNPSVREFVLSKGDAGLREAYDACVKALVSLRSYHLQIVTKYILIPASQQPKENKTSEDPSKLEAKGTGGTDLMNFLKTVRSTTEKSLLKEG

`CCC(CC(=O)O)c1cc(NC(=O)Nc2ccc3c(c2)OCO3)c(N(CC(C)C)C2CCCCC2)cc1F` (single isomer, unassigned) [Example 1111, 3-(5-(3-(Benzo[d][1,3]dioxol-5-yl)ureido)-4-(cyclohexyl(isobutyl)amino)-2-fluorophenyl)pentanoic acid]: the IC50 is under 5 nM.

Consider `CCC(CC(=O)O)c1cc(NC(=O)Nc2cc(C)no2)c(N(CC(C)C)C2CCCCC2)cc1F` (single isomer, unassigned) [Example 1114, 3-(4-(Cyclohexyl(isobutyl)amino)-2-fluoro-5-(3-(3-methylisoxazol-5-yl)ureido)phenyl)pentanoic acid], for which the IC50 was under 5 nM.

For the compound `CCOc1ccc(NC(=O)Nc2cc(C(CC)CC(=O)O)c(F)cc2N(CC(C)C)C2CCCCC2)c(F)c1` (single isomer, unassigned) [Example 1117, 3-(4-(Cyclohexyl(isobutyl)amino)-5-(3-(4-ethoxy-2-fluorophenyl)ureido)-2-fluorophenyl)pentanoic acid], the IC50 is under 5 nM.

With `CCC(CC(=O)O)c1cc(NC(=O)Nc2ccc(C)cc2F)c(N(CC(C)C)C2CCCCC2)cc1F` (single isomer, unassigned) [Example 1120, 3-(4-(Cyclohexyl(isobutyl)amino)-2-fluoro-5-(3-(2-fluoro-4-methylphenyl)ureido)phenyl)pentanoic acid], the IC50 is under 5 nM.

In the case of `CCC(CC(=O)O)c1cc(NC(=O)Nc2cncnc2)c(N(CC(C)C)C2CCCCC2)cc1F` (single isomer, unassigned) [Example 1123, 3-(4-(cyclohexyl(isobutyl)amino)-2-fluoro-5-(3-(pyrimidin-5-yl)ureido)phenyl)pentanoic acid], the IC50 was under 5 nM.

Consider `CCC(CC(=O)O)c1cc(NC(=O)Nc2cnc(C)nc2)c(N(CC(C)C)C2CCCCC2)cc1F` (single isomer, unassigned) [Example 1126, 3-(4-(Cyclohexyl(isobutyl)amino)-2-fluoro-5-(3-(2-methylpyrimidin-5-yl)ureido)phenyl)pentanoic acid], for which the IC50 is under 5 nM.

Consider `CCC(CC(=O)O)c1cc(NC(=O)Nc2ccc(C)cc2)c(N(CC(C)C)CC(C)C)cc1F` (single isomer, unassigned) [Example 1129, 3-(4-(Diisobutylamino)-2-fluoro-5-(3-(p-tolyl)ureido)phenyl)pentanoic acid], for which the IC50 was under 5 nM.

Consider `CCOc1ccc(NC(=O)Nc2cc(C(CC)CC(=O)O)c(F)cc2N(CC(C)C)CC(C)C)cc1` (single isomer, unassigned) [Example 1132, 3-(4-(Diisobutylamino)-5-(3-(4-ethoxyphenyl)ureido)-2-fluorophenyl)pentanoic acid], for which the concentration for half-maximal inhibition (IC50) is under 5 nM.

For `CCC(CC(=O)O)c1cc(NC(=O)Nc2ccc3c(c2)OCO3)c(N(CC(C)C)CC(C)C)cc1F` (single isomer, unassigned) [Example 1135, 3-(5-(3-(Benzo[d][1,3]dioxol-5-yl)ureido)-4-(diisobutylamino)-2-fluorophenyl)pentanoic acid], the IC50 is under 5 nM.

`CCOc1ccc(NC(=O)Nc2cc(C(CC)CC(=O)O)c(F)cc2N(CC(C)C)CC(C)C)c(F)c1` (single isomer, unassigned) [Example 1138, 3-(4-(Diisobutylamino)-5-(3-(4-ethoxy-2-fluorophenyl)ureido)-2-fluorophenyl)pentanoic acid]: the IC50 was under 5 nM.

Regarding `CCC(CC(=O)O)c1cc(NC(=O)Nc2cnc(OC)nc2)c(N(CC(C)C)CC(C)C)cc1F` (single isomer, unassigned) [Example 1141, 3-(4-(Diisobutylamino)-2-fluoro-5-(3-(2-methoxypyrimidin-5-yl)ureido)phenyl)pentanoic acid], the IC50 is under 5 nM.

With `CCC(CC(=O)O)c1ccc(N2CCC[C@@H]2COC)c(NC(=O)Cc2ccc(C)cc2)c1` (single isomer, unassigned) [Example 1144], the IC50 is over 50 nM.

On to `COCC(CC(=O)O)c1cc(F)c(N(CC(C)C)C2CCCCC2)c(NC(=O)Nc2ccc(OC)cc2F)c1` (single isomer, unassigned) [Example 1152, 3-(4-(Cyclohexyl(isobutyl)amino)-3-fluoro-5-(3-(2-fluoro-4-methoxyphenyl)ureido)phenyl)-4-methoxybutanoic acid], for which the IC50 is under 5 nM.

As for `CCOc1ccc(NC(=O)Nc2cc(C(COC)CC(=O)O)cc(F)c2N(CC(C)C)C2CCCCC2)cc1` (single isomer, unassigned) [Example 1153, 3-(4-(cyclohexyl(isobutyl)amino)-3-(3-(4-ethoxyphenyl)ureido)-5-fluorophenyl)-4-methoxybutanoic acid], the IC50 was under 50 nM.

For the compound `COCC(CC(=O)O)c1cc(F)c(N(CC(C)C)C2CCCCC2)c(NC(=O)Nc2ccc(OC(F)(F)F)cc2)c1` (single isomer, unassigned) [Example 1154, 3-(4-(cyclohexyl(isobutyl)amino)-3-fluoro-5-(3-(4-(trifluoromethoxy)phenyl)ureido)phenyl)-4-methoxybutanoic acid], the IC50 is under 50 nM.

For `COCC(CC(=O)O)c1cc(F)c(N(CC(C)C)C2CCCCC2)c(NC(=O)Nc2ccc(C)cc2)c1` (single isomer, unassigned) [Example 1155, 3-(4-(cyclohexyl(isobutyl)amino)-3-fluoro-5-(3-(p-tolyl)ureido)phenyl)-4-methoxybutanoic acid], the IC50 was under 5 nM.

Take `COCC(CC(=O)O)c1cc(F)c(N(CC(C)C)C2CCCCC2)c(NC(=O)Nc2ccc(Cl)cc2F)c1` (single isomer, unassigned) [Example 1156, 3-(3-(3-(4-chloro-2-fluorophenyl)ureido)-4-(cyclohexyl(isobutyl)amino)-5-fluorophenyl)-4-methoxybutanoic acid]: the IC50 was under 5 nM.

`CCOc1ccc(NC(=O)Nc2cc(C(COC)CC(=O)O)cc(F)c2N(CC(C)C)C2CCCCC2)c(F)c1` (single isomer, unassigned) [Example 1157, 3-(4-(cyclohexyl(isobutyl)amino)-3-(3-(4-ethoxy-2-fluorophenyl)ureido)-5-fluorophenyl)-4-methoxybutanoic acid]: the IC50 was under 5 nM.

Consider `COCC(CC(=O)O)c1cc(F)c(N(CC(C)C)C2CCCCC2)c(NC(=O)Nc2cc(C)on2)c1` (single isomer, unassigned) [Example 1158, 3-(4-(cyclohexyl(isobutyl)amino)-3-fluoro-5-(3-(5-methylisoxazol-3-yl)ureido)phenyl)-4-methoxybutanoic acid], for which the IC50 is under 50 nM.

In the case of `CCOc1ccc(NC(=O)Nc2cc(C(COC)CC(=O)O)cc(F)c2N(CC(C)C)C2CCCCC2)cc1` (single isomer, unassigned) [Example 1160, 3-(4-(cyclohexyl(isobutyl)amino)-3-(3-(4-ethoxyphenyl)ureido)-5-fluorophenyl)-4-methoxybutanoic acid], the IC50 was under 5 nM.

`COCC(CC(=O)O)c1cc(F)c(N(CC(C)C)C2CCCCC2)c(NC(=O)Nc2ccc(Cl)cc2)c1` (single isomer, unassigned) [Example 1162, 3-(3-(3-(4-chlorophenyl)ureido)-4-(cyclohexyl(isobutyl)amino)-5-fluorophenyl)-4-methoxybutanoic acid]: the IC50 was under 5 nM.

Regarding `COCC(CC(=O)O)c1cc(F)c(N(CC(C)C)C2CCCCC2)c(NC(=O)Nc2ccc(OC(F)(F)F)cc2)c1` (single isomer, unassigned) [Example 1163, 3-(4-(cyclohexyl(isobutyl)amino)-3-fluoro-5-(3-(4-(trifluoromethoxy)phenyl)ureido)phenyl)-4-methoxybutanoic acid], the IC50 is under 5 nM.

Consider `COCC(CC(=O)O)c1cc(F)c(N(CC(C)C)C2CCCCC2)c(NC(=O)Nc2cc(C)on2)c1` (single isomer, unassigned) [Example 1167, 3-(4-(cyclohexyl(isobutyl)amino)-3-fluoro-5-(3-(5-methylisoxazol-3-yl)ureido)phenyl)-4-methoxybutanoic acid], for which the IC50 is under 5 nM.

Take `CCOc1ccc(CC(=O)Nc2cc(C(COC)CC(=O)O)cc(F)c2N(CC(C)C)C2CCCCC2)cc1` (single isomer, unassigned) [Example 1168, 3-(4-(cyclohexyl(isobutyl)amino)-3-(2-(4-ethoxyphenyl)acetamido)-5-fluorophenyl)-4-methoxybutanoic acid]: the IC50 is under 50 nM.

Take `COCC(CC(=O)O)c1cc(F)c(N(CC(C)C)C2CCCCC2)c(NC(=O)Cc2cc(C)on2)c1` (single isomer, unassigned) [Example 1169, 3-(4-(cyclohexyl(isobutyl)amino)-3-fluoro-5-(2-(5-methylisoxazol-3-yl)acetamido)phenyl)-4-methoxybutanoic acid]: the IC50 is over 50 nM.

As for `COCC(CC(=O)O)c1cc(F)c(N(CC(C)C)C2CCCCC2)c(NC(=O)Cc2ccc(C)cc2)c1` (single isomer, unassigned) [Example 1170, 3-(4-(cyclohexyl(isobutyl)amino)-3-fluoro-5-(2-(p-tolyl)acetamido)phenyl)-4-methoxybutanoic acid], the IC50 is under 50 nM.

Regarding `COCC(CC(=O)O)c1cc(F)c(N(CC(C)C)C2CCCCC2)c(NC(=O)Cc2ccc(Cl)cc2F)c1` (single isomer, unassigned) [Example 1172, 3-(3-(2-(4-chloro-2-fluorophenyl)acetamido)-4-(cyclohexyl(isobutyl)amino)-5-fluorophenyl)-4-methoxybutanoic acid], the IC50 was under 50 nM.

For `COCC(CC(=O)O)c1cc(F)c(N(CC(C)C)CC(C)C)c(NC(=O)Nc2ccc(OC)cc2F)c1` (single isomer, unassigned) [Example 1176, 3-(4-(Diisobutylamino)-3-fluoro-5-(3-(2-fluoro-4-methoxyphenyl)ureido)phenyl)-4-methoxybutanoic acid], the IC50 is under 5 nM.

On to `COCC(CC(=O)O)c1cc(F)c(N(CC(C)C)CC(C)C)c(NC(=O)Cc2ccc(C)cc2)c1` (single isomer, unassigned) [Example 1177, 3-(4-(Diisobutylamino)-3-fluoro-5-(2-(p-tolyl)acetamido)phenyl)-4-methoxybutanoic acid], for which the IC50 was under 50 nM.
